# Laboratory results: patent US8624022B2, “Substituted aniline derivatives” (UCB Pharma, S.A., priority 2006, dated 2014)
# pIC50: −log10 of the molar value.
# Legend:
# [1] = target: β-1,3-glucan synthase from Aspergillus fumigatus (Aspergillus fumigatus, UniProt Q4WLT4); assay: Glucan synthase assay (membrane preparation); type: biochemical; conditions: UDP-[3H]-glucose incorporation, 30° C., 120 minutes, read-out: A. fumigatus Glucan Synth IC50
# Method: (§1) The glucan synthase assay follows the incorporation of tritiated UDP-glucose into acid insoluble β-glucan as catalysed by the glucan synthase activity present in membrane preparations from Candida albicans and Aspergillus fumigatus. UDP-[^3H]-glucose (ca 0.01 μCi) is added to 100 μl assay buffer (50 mM Tris-Cl, pH8.0, 8% glycerol, 1 mM EDTA, 1.5 mM KF, 1 mM DTT, 20 μM GTPγS, 600 μM UDP-glucose) and the reaction initiated by the addition of 2.5 μl of enzyme preparation.
# (§2) After incubation at 30° C. for 120 minutes, 10 μl of 30 mg/ml BSA is added with mixing and the reaction is terminated with 110 μl ice-cold 20% TCA. The precipitate is collected on a GF/B filter plate and washed three times with 200 μl water. Once dry, 200 μl of Microscint20 is added to each well and the plate is read on a Top-count scintillation counter.
# [2] = target: β-1,3-glucan synthase from Candida albicans (Candida albicans, UniProt O13428); assay: Glucan synthase assay (membrane preparation); type: biochemical; conditions: UDP-[3H]-glucose incorporation, 30° C., 120 minutes, read-out: C. albicans Glucan Synth IC50
# Sequence of β-1,3-glucan synthase from Candida albicans (O13428 1-1897): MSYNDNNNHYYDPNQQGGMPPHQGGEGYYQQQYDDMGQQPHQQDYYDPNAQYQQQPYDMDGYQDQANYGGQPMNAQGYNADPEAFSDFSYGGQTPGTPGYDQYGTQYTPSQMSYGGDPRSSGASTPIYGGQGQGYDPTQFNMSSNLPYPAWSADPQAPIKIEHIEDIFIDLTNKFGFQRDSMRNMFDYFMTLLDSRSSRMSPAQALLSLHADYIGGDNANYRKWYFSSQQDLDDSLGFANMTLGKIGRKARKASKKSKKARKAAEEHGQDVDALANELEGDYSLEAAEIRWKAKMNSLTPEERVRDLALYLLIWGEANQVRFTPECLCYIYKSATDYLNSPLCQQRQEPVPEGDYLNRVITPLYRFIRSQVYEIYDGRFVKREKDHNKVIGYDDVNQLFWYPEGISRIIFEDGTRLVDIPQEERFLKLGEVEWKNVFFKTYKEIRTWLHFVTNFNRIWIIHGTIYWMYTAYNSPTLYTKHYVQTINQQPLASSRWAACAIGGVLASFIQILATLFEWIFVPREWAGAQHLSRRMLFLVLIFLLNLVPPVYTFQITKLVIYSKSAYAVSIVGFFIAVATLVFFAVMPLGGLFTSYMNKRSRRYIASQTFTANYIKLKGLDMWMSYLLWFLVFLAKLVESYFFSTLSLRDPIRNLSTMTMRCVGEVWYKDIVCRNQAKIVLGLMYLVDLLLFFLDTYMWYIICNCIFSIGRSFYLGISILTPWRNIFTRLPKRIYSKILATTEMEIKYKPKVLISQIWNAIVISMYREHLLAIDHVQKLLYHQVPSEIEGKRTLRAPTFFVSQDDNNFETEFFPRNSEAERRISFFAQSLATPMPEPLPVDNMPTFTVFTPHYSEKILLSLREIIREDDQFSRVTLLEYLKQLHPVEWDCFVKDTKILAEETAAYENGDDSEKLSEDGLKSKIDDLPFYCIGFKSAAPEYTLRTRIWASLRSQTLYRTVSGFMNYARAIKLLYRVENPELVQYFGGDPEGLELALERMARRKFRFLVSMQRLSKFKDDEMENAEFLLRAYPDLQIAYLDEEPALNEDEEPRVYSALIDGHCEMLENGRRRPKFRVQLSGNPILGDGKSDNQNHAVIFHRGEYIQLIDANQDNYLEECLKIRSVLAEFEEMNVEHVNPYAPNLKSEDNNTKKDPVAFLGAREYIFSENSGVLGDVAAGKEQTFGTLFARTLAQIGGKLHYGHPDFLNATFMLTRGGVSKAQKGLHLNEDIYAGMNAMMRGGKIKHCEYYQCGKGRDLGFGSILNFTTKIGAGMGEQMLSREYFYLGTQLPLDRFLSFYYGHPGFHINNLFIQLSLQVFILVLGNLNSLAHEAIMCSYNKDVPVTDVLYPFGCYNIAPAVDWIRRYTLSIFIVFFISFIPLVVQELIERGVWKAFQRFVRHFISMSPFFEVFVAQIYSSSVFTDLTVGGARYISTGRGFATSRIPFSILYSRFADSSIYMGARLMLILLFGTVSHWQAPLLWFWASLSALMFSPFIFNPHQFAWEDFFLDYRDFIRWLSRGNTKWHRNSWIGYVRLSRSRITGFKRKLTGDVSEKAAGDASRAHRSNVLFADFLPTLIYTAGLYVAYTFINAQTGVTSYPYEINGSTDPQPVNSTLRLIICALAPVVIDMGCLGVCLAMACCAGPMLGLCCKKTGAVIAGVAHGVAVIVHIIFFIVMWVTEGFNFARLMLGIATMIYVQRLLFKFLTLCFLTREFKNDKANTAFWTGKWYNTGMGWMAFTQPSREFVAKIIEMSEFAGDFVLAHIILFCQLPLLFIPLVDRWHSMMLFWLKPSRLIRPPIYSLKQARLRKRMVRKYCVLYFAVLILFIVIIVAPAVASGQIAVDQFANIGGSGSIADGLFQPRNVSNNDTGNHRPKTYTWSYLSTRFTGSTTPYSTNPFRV
# Method: as §1, §2
# Candida albicans = assay: Proliferation assay (growth, OD600nm); type: cell-based; conditions: whole organism growth, OD600nm over 6 hours at 25° C.
# Method: (§3) Overnight cultures of organism were diluted back to an OD600nm of 0.1 in fresh media. Test compounds were added in a final concentration of 0.5% DMSO and the OD600nm was followed over 6 hours incubation at 25° C. Compounds described herein were screened to determine their activity as inhibitors of β-1,3-glucan synthase from Candida albicans and Aspergillus fumigatus and for their ability to inhibit the growth of Candida albicans and Aspergillus fumigatus whole organisms.
# Aspergillus fumigatus = assay: Proliferation assay (growth, OD600nm); type: cell-based; conditions: whole organism growth, OD600nm over 6 hours at 25° C.
# Method: as §3
# Sequence of β-1,3-glucan synthase from Aspergillus fumigatus (Q4WLT4 1-1904): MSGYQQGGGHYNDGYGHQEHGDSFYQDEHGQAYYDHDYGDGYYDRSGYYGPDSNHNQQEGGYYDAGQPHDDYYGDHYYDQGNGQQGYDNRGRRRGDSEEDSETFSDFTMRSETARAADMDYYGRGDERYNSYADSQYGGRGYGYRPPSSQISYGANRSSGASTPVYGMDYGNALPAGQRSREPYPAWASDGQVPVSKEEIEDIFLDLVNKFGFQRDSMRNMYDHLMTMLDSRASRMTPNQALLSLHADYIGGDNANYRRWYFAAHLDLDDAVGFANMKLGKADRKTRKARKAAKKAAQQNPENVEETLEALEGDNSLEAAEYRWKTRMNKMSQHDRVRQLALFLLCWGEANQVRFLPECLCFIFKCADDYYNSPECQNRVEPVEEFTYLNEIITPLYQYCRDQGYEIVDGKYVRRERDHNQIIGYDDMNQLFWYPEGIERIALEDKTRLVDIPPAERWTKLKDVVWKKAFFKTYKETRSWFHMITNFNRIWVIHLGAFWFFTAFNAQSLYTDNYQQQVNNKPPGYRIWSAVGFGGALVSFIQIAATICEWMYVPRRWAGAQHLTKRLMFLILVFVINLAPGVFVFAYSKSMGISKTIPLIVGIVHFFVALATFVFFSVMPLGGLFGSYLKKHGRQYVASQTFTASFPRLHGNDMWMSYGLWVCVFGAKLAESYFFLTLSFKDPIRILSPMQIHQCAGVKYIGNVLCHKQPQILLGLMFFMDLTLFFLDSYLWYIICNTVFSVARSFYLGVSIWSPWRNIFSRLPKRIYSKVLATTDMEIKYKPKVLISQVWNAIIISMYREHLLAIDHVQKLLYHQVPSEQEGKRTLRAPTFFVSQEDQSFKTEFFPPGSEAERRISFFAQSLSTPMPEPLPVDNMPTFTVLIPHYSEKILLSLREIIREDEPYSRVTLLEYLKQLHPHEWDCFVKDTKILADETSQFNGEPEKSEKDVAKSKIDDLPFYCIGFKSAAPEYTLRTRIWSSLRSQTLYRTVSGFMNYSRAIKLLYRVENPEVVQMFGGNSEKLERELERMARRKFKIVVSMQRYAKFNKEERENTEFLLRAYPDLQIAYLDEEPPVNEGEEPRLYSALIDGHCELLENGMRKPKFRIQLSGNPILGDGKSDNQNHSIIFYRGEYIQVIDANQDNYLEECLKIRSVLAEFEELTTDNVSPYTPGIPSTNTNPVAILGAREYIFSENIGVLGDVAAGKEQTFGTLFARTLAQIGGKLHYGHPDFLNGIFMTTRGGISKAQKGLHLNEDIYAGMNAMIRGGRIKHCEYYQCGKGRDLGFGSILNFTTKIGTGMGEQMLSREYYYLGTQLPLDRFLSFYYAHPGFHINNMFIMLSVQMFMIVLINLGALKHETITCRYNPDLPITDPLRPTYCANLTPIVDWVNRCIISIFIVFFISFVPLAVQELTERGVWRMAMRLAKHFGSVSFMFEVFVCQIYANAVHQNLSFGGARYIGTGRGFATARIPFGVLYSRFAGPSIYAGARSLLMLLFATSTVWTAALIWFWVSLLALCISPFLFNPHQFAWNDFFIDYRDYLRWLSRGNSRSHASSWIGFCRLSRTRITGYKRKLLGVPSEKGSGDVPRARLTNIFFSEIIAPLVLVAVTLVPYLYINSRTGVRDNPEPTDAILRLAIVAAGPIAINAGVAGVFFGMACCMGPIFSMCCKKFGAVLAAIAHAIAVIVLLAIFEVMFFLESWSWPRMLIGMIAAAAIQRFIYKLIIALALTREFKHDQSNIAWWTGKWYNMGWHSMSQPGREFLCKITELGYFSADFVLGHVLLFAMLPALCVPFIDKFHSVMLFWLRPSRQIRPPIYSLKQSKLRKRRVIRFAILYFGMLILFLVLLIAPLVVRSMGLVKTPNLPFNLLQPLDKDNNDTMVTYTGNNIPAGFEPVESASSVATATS
smiles,measurement,setting,value
"N[C@H]1CCN(C(=O)CN(CC(=O)NCc2cc(F)cc(C(F)(F)F)c2)c2ccc(Oc3ccccc3)cc2)C1 [OGT4155, 2-[[2-((S)-3-Aminopyrrolidin-1-yl)-2-oxo-ethyl]-(4-phenoxyphenyl)amino]-N-[3-fluoro-5-(trifluoromethyl)benzyl]acetamide]",pIC50,[1],5.28
same,pIC50,[2],5.27
same,pIC50,Candida albicans,4.77
same,pIC50,Aspergillus fumigatus,4.85
"N[C@H]1CCN(C(=O)CN(CC(=O)NCc2cccc(Cl)c2)c2ccc(Oc3ccccc3)cc2)C1 [OGT4154, 2-[[2-((S)-3-Aminopyrrolidin-1-yl)-2-oxo-ethyl]-(4-phenoxyphenyl)amino]-N-(3-chlorobenzyl)acetamide]",pIC50,Candida albicans,4.66
same,pIC50,Aspergillus fumigatus,4.92
"N[C@H]1CCN(C(=O)CN(CC(=O)NCc2cccc(Cl)c2)c2ccccc2Oc2ccccc2)C1 [OGT3935, 2-[[2-((S)-3-Aminopyrrolidin-1-yl)-2-oxo-ethyl]-(2-phenoxyphenyl)amino]-N-(3-chlorobenzyl)acetamide]",pIC50,[1],4.42
same,pIC50,[2],4.92
same,pIC50,Candida albicans,4.26
same,pIC50,Aspergillus fumigatus,4.03
"CCOC(=O)c1cccc(-c2ccc(N(CC(=O)N3CC[C@H](N)C3)C(=O)/C=C/c3ccccc3)cc2)c1 [OGT4355, 4′-{[2-((S)-3-Aminopyrrolidin-1-yl)-2-oxo-ethyl]-[(E)-(3-phenylacryloyl)]-amino}-biphenyl-3-carboxylic acid, ethyl ester]",pIC50,Candida albicans,4.74
same,pIC50,Aspergillus fumigatus,5.40
"N[C@H]1CCN(C(=O)CN(CC(=O)NCc2cc(C(F)(F)F)cc(C(F)(F)F)c2)c2cccc(Oc3ccccc3)c2)C1 [OGT4165, 2-[[2-((S)-3-Aminopyrrolidin-1-yl)-2-oxo-ethyl]-(3-phenoxyphenyl)amino]-N-[3,5-bis-(trifluoromethyl)benzyl]acetamide]",pIC50,[1],5.21
same,pIC50,[2],5.57
same,pIC50,Candida albicans,4.72
same,pIC50,Aspergillus fumigatus,4.37
"N[C@H]1CCN(C(=O)CN(C(=O)/C=C/c2ccccc2)c2ccc(Oc3ccccc3)cc2)C1 [OGT4344, (E)-N-[2-((S)-3-Aminopyrrolidin-1-yl)-2-oxo-ethyl]-N-(4-phenoxyphenyl)-3-phenylacrylamide]",pIC50,[1],4.31
same,pIC50,[2],4.47
same,pIC50,Candida albicans,4.57
same,pIC50,Aspergillus fumigatus,4.92
"N[C@H]1CCN(C(=O)CN(C(=O)/C=C/c2ccccc2)c2ccc(-c3cccc(OC(F)(F)F)c3)cc2)C1 [OGT4325, (E)-N-[2-((S)-3-Aminopyrrolidin-1-yl)-2-oxo-ethyl]-3-phenyl-N-(3′-trifluoromethoxy-biphenyl-4-yl)-acrylamide]",pIC50,[1],4.81
same,pIC50,[2],5.07
same,pIC50,Candida albicans,5.10
